These results are taken from patent US20200339537A1, “NOVEL COMPOUND AS INHIBITOR AGAINST BINDING OF PF34 PROTEIN TO NEDD4-1 PROTEIN AND USE THEREOF” (ENHANCEDBIO INC., priority 2017, published 2020).

Assay [1] addresses T1, binding between p34 protein and NEDD4-1 protein (Homo sapiens, UniProt P46934+Q9UHV2).
T1 construct: FLAG or 6xHis (known only from the detection antibodies)
T1 sequence (P46934 1-1319): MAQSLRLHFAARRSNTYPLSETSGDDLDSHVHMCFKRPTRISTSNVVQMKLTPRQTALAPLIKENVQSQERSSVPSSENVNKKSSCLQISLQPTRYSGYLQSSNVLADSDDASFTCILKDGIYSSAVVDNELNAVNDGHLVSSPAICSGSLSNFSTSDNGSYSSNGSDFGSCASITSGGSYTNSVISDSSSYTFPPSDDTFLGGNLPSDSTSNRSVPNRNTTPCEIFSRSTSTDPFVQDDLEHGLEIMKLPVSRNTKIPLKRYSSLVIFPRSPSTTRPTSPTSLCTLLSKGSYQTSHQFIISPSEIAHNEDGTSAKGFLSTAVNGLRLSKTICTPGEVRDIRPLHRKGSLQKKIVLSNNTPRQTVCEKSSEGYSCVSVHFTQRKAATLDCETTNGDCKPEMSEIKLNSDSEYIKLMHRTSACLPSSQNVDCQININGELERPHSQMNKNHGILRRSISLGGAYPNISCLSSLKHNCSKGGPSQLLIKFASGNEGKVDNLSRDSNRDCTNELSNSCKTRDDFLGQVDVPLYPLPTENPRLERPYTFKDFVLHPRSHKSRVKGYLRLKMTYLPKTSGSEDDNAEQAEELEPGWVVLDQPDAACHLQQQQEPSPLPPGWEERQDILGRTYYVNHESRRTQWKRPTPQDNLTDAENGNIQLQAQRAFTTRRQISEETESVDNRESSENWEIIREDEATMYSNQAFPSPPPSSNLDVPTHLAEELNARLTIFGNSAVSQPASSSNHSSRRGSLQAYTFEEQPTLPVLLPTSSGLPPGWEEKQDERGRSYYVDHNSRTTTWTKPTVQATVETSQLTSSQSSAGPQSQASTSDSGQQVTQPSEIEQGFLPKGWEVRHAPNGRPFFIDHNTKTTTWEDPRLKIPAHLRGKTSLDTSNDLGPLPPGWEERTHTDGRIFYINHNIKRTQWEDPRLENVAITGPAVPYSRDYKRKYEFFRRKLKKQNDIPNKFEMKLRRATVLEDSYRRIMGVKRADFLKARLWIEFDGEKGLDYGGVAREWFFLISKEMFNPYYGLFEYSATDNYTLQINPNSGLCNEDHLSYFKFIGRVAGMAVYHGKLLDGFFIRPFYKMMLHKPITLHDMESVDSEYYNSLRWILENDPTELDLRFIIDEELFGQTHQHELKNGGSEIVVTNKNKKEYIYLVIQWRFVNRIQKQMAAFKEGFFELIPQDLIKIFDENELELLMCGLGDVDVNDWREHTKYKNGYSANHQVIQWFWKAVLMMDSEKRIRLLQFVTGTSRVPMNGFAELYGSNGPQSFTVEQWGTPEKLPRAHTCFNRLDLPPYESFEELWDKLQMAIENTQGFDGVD
T1 sequence (Q9UHV2 1-236): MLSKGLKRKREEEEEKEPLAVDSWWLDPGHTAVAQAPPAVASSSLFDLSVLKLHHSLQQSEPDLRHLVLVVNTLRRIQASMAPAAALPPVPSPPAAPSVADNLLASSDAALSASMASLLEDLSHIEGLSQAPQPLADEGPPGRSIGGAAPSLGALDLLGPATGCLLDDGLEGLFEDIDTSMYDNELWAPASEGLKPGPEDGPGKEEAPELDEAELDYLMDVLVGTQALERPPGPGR
Kind of assay: Inhibitory activity on binding between p34 and NEDD4-1, FRET (HTRF) assay. The note with it: 1×PBS pH 7.4, 0.1% BSA, 2% DMSO, 384-well; for inhibition at 10 µM: pH 7.4, compound 10 μM. The procedure: Inhibitory activity of the compound on binding between p34 and NEDD4-1 was evaluated using p34 protein and NEDD4-1 protein based on the HTRF technology developed by Cisbio. In this assay, a fluorescence resonance energy transfer (FRET) signal was measured in the presence of terbium-labeled anti-FLAG antibody and d2-labeled anti-6XHis antibody. Experiments were performed in 384-well plates under a condition of 1×PBS pH 7.4, 0.1% BSA, and 2% DMSO. A background signal was measured in the absence of the p34-NEDD4-1 proteins, and a non-inhibiting signal was measured with addition of only a solvent (2% DMSO). […] Subsequently, inhibitory activity of the compound on p34-NEDD4-1 was calculated in %.
On the technique in general: In TR-FRET formats the signal depends on donor and acceptor labels being close together.

Assay [2] relates to PTEN (lipid phosphatase activity) in human colon cancer cell line SW620. Kind of assay: cells. Conditions: Homo sapiens, SW-620, 48 h, compound 5 μM, PTEN immunoprecipitation, diC8-PIP3 substrate, Biomol Green, read-out: PTEN activity (relative fold @5 μM). Type of assay: cell-based.

Structures are written as SMILES.

The term inhibition denotes the percentage by which the read-out fell short of the control. Read a high inhibition as strong suppression. For the molecule `CCC(NC(=O)C1CCN(Cc2c[nH]c3ccc(C(F)(F)F)cc23)CC1)c1nc2ccccc2[nH]1` (centres unmarked) [Example 35], the inhibition at 10 µM in assay [1] is 45.5%. In addition, the fold induction at 5 µM in assay [2] worked out at 1.5.

On to `O=C(C1CCN(Cc2ccc3[nH]ccc3c2)CC1)N1CCn2cc(C(F)(F)F)nc2C1` [Example 17], for which at 10 µM the inhibition in assay [1] was 48%. Besides, the fold induction at 5 µM in assay [2] was found to be 2.2.

On to `Cc1ccc2[nH]c(CNC(=O)N3CCN(Cc4c[nH]c5ccc(Cl)cc45)CC3)nc2c1` [Example 71], for which the inhibition at 10 µM in assay [1] is 33.7%. The fold induction at 5 µM in assay [2] is 1.8.

In turn, `O=C(NCc1nccs1)N1CCN(Cc2c[nH]c3ccc(F)cc23)CC1` [Example 81] showed an inhibition at 10 µM in assay [1] of 50.7%. For the same molecule, the fold induction at 5 µM in assay [2] was determined as 2.2.

As for `O=C(NCc1cncs1)N1CCN(Cc2ccc3[nH]ccc3c2)CC1` [Example 84], 10 µM produced 44.1% inhibition in assay [1]. For the same molecule, the fold induction at 5 µM in assay [2] came to 2.9.

In assay [1], `O=C(NCc1cncs1)N1CCN(Cc2c[nH]c3ccc(F)cc23)CC1` [Example 86] registered an inhibition at 10 µM of 41.6%. Besides, the fold induction at 5 µM in assay [2] worked out at 2.

In assay [1], `Cc1[nH]c2ccc(CN3CCN(C(=O)NCc4cncs4)CC3)cc2c1C` [Example 89] came in with an inhibition at 10 µM of 31.5%. Also, in assay [2], the fold induction at 5 µM amounted to 2.

The molecule `O=C(Nc1ccc(C(F)(F)F)cc1)N1CCN(Cc2ccc3[nH]ccc3c2)CC1` [Example 68] had an inhibition at 10 µM in assay [1] of 49.6%. Also, in assay [2], the fold induction at 5 µM was found to be 1.8.

Take `O=C(NCc1nc2cc(Cl)ccc2[nH]1)C1CCN(Cc2c[nH]c3ccc(Cl)cc23)CC1` [Example 4]: in assay [1], the inhibition at 10 µM is 30.6%. The fold induction at 5 µM in assay [2] was determined as 1.8.

`O=C(NCc1cncs1)N1CCN(Cc2n[nH]c3ccccc23)CC1` [Example 83] came in with an inhibition at 10 µM in assay [1] of 41.3%. In addition, the fold induction at 5 µM in assay [2] is 1.9.

For the molecule `O=C(NCc1nccs1)C1CCN(Cc2ccc3[nH]ccc3c2)CC1` [Example 19], the “FRET result (Inhibition % @10 μM)” value in assay [1] (compound 10 μM, 10 µM) is reported as 32.1%. Moreover, the fold induction at 5 µM in assay [2] stood at 2.5.

In assay [1], `O=C(NCc1nc2ccccc2o1)C1CCN(Cc2ccc3[nH]ccc3c2)CC1` [Example 18] had an inhibition at 10 µM of 30%. For the same molecule, the fold induction at 5 µM in assay [2] was found to be 2.

In the case of `O=C(Nc1ccccn1)N1CCN(Cc2ccc3[nH]ccc3c2)CC1` [Example 72], 10 µM produced 55.5% inhibition in assay [1]. In addition, in assay [2], the fold induction at 5 µM was 1.9.

On to `O=C(NCc1cncs1)N1CCN(Cc2c[nH]c3ccc(Cl)cc23)CC1` [Example 85], for which the inhibition at 10 µM in assay [1] was found to be 44%. Further, in assay [2], the fold induction at 5 µM amounted to 1.9.

The molecule `O=C(NCc1nc2cc(F)ccc2[nH]1)C1CCN(Cc2c[nH]c3ccc(Cl)cc23)CC1` [Example 6] yielded an inhibition at 10 µM in assay [1] of 36.6%. For the same molecule, the fold induction at 5 µM in assay [2] was 3.

In turn, `O=C(NCc1nc2ccccc2[nH]1)C1CCN(Cc2c[nH]c3ccccc23)CC1` [Example 61] showed an inhibition at 10 µM in assay [1] of 52.3%. Further, the fold induction at 5 µM in assay [2] came out at 2.1.

`O=C(NCc1nc2ccccc2[nH]1)C1CCN(Cc2c[nH]c3ccc(Cl)cc23)CC1` [Example 45]: at 10 µM the inhibition in assay [1] was 33.8%. The fold induction at 5 µM in assay [2] stood at 2.8.

As to `O=C(C1CCN(Cc2c[nH]c3ccc(C(F)(F)F)cc23)CC1)N1CCn2cc(C(F)(F)F)nc2C1` [Example 30], the inhibition at 10 µM in assay [1] came to 59.1%. The fold induction at 5 µM in assay [2] was 1.5.

In assay [1], `O=C(NCc1nccs1)N1CCN(Cc2ccc3[nH]ccc3c2)CC1` [Example 80] showed an inhibition at 10 µM of 49.7%. Besides, the fold induction at 5 µM in assay [2] came to 2.1.

Consider `O=C(NCc1nccs1)N1CCN(Cc2ccc3cc[nH]c3c2)CC1` [Example 82], for which the inhibition at 10 µM in assay [1] was determined as 47.2%. Also, the fold induction at 5 µM in assay [2] is 1.7.

Molecule `Cc1ccc2nc(CNC(=O)C3CCN(Cc4ccc5[nH]ccc5c4)CC3)[nH]c2c1` [Example 20] showed an inhibition at 10 µM in assay [1] of 51.5%. The fold induction at 5 µM in assay [2] was determined as 1.9.

Turning to `Cc1ccc2[nH]c(C(C)NC(=O)C3CCN(Cc4c[nH]c5ccc(C(F)(F)F)cc45)CC3)nc2c1` (centres unmarked) [Example 29], the inhibition at 10 µM in assay [1] was 59.1%. In addition, in assay [2], the fold induction at 5 µM came out at 2.2.

Turning to `O=C(NCc1nccs1)N1CCN(Cc2n[nH]c3ccccc23)CC1` [Example 79], testing at 10 µM in assay [1] gave an inhibition of 54.4%. Further, in assay [2], the fold induction at 5 µM was 2.2.

As for `CC(NC(=O)C1CCN(Cc2c[nH]c3ccc(C(F)(F)F)cc23)CC1)c1nc2ccccc2[nH]1` (centres unmarked) [Example 34], in assay [1], the inhibition at 10 µM amounted to 59.6%. In addition, the fold induction at 5 µM in assay [2] is 1.9.

With `O=C(NCc1nc2ccccc2o1)C1CCN(Cc2c[nH]c3ccc(C(F)(F)F)cc23)CC1` [Example 32], the inhibition at 10 µM in assay [1] was found to be 61.1%. Moreover, in assay [2], the fold induction at 5 µM was 1.8.

On to `O=C(NC(Cc1ccccc1)c1nc2ccccc2[nH]1)C1CCN(Cc2c[nH]c3ccc(C(F)(F)F)cc23)CC1` (centres unmarked) [Example 33], for which the inhibition at 10 µM in assay [1] came to 41.2%. Besides, the fold induction at 5 µM in assay [2] was 2.5.

Take `O=C(NCc1nc2cc(F)c(F)cc2[nH]1)C1CCN(Cc2c[nH]c3ccc(C(F)(F)F)cc23)CC1` [Example 39]: the inhibition at 10 µM in assay [1] was 37.7%. Moreover, the fold induction at 5 µM in assay [2] was 1.6.

As to `O=C(NCc1nc2cc(F)c(F)cc2[nH]1)C1CCN(Cc2ccc3[nH]ccc3c2)CC1` [Example 16], the inhibition at 10 µM in assay [1] turned out to be 47.2%. In addition, the fold induction at 5 µM in assay [2] was found to be 1.5.
